Data on 9 molecules can be found in patent US20190358176A1, “METHODS OF SENSITIZING CANCER CELLS TO IMMUNE CELL KILLING” (University of Pittsburgh - of the Commonwealth System of …, priority 2017, published 2019).

pEC50, pIC50: −log10 of the molar value. Read-outs that look alike come from different tables or passages of the source.

For series [1], the system named is MDA-MB-231 cells. As to the kind of experiment: HCA of apoptosis and ERK phosphorylation (multiparametric: nuclear condensation, caspase-3 cleavage, ERK phosphorylation). Type of series: cell-based, human. The conditions noted are these: for pIC50: Homo sapiens, 24 hours. As to the method: MDA-MB-231 cells (10,000/well) were treated with identical concentration gradients of test agents on the right and left half of a 384 well microplate for later assessment of potential compound autofluorescence. After 24 hours, cells were fixed, permeabilized with 0.2% Triton X-100, blocked with 1% BSA/PBS, and immunostained with anti-phospho-ERK (E10, CST cat#9106L)/AlexaFluor488 and anti-cleaved caspase-3 (CST cat#9664L)/AlexaFluor594 primary/secondary antibody pairs. Plates were imaged on the ArrayScan II using a 10×0.5NA objective. Each well was background corrected by subtracting mean phospho-ERK and cleaved caspase-3 intensities from wells that had received secondary antibody only. Data in Table 1 are the averages of the indicated numbers of independent experiments, each performed in quadruplicate. IC50, standard error, and 95% confidence intervals were calculated by […] in GraphPad Prism.
Multiple data points were analyzed in GraphPad Prism by one-way ANOVA using Dunnett's multiple comparison test. EC50/IC50 values were obtained from at least three independent experiments by non-linear regression using a four parameter logistic equation. IC50, standard error, and 95% confidence intervals were calculated in GraphPad.

Series [2] relates to rat hepatocytes. The series is described as follows: Five-day hepatocyte toxicity (PI positive cells). The class given is cell-based. As to the method: (§1) Rat hepatocytes were isolated using standard two step collagenase digestion (15) and sub-cultivated at 14,000 hepatocytes/well in collagen-1 coated 384 well plates in Williams E Medium supplemented with 10% FBS, 2 mM L-glutamine and 50 U/ml Penicillin and streptomycin. After 4 hours, medium was decanted and replaced with Hepatocyte Maintenance Media (Williams E supplemented with 1.25 mg/ml bovine serum albumin, 6.25 μg/ml human insulin, 100 nM dexamethasone, 6.25 μg/ml human transferrin, 6.25 ng/ml selenous acid, 2 mM L-glutamine, 15 mM HEPES, 100 U/mL penicillin, and 100 U/mL streptomycin). After overnight culture, cells were treated with concentration gradients of test agents. One hour after compound addition, cells were labeled with 200 nM TMRE and 4 μg/ml Hoechst 33342 for 45 min, imaged live on an ArrayScan VTI using a 10× objective, and images were analyzed with the Compartmental Bioapplication. Mitochondria were identified as cytosolic spots by size and brightness. The final parameter was % HIGH RingSpotAvgIntenCh2 (i.e., percentage of cells with TMRE puncta in the cytoplasm based on a threshold set with vehicle treated cells).
A gelling solution of 1.25 mg/ml rat tail collagen type I in pH 7.2 90:10 (v/v) Williams E media/10×HBSS was overlaid onto the rat hepatocytes. The collagen gel was incubated for 1 hour at 37° C., 5% CO2. The collagen sandwich cultures were then challenged for 5 days to test compounds in Hepatocyte Maintenance Media, without refeeding. A 10× solution of 40 μg/ml Hoechst 33342 was added during the final 2 hours of incubation followed by a 10× solution of 20 μg/ml PI for 1 hour. Cells were imaged and the percentage of PI positive cells calculated as above.

The subject of series [3] is rat hepatocytes. As to the kind of experiment: Hepatocyte mitochondrial function (TMRE staining). Type of series: cell-based. How it is done: as §1
In series [4] the test system is MDA-MB-231 cells. As to the kind of experiment: HCA of cell motility and cytotoxicity (Oris Pro 384 cell migration plate). The class given is cell-based, human. The conditions noted are these: 48 hours, at antimigratory concentrations. As to the method:
HCA of cell motility and cytotoxicity was performed essentially as described (51). MDA-MB-231 cells (15,000/well) were plated in collagen-coated Oris™ Pro 384-well microplates (Platypus Technologies cat # PRO384CMACCS) containing a chemical exclusion zone that dissolves upon cell seeding. Two hours after plating, medium was removed, and cells treated with ten-point, two-fold concentration gradients of test agents. Forty-eight hours after treatment, cells were stained with 10 μg/ml Hoechst 33342 and 1 μg/ml PI in HBSS for 15 min at 37° C. Plates were washed once with PBS and scanned live on the ArrayScan II using a 5× objective. To capture cells that had entered into the exclusion zone, a single field was acquired in the center of the well and nuclei therein enumerated. To assess changes in cell loss, nuclear size, and necrotic cell death, a second scan was performed that captured one field at the edge of the well (51). Parameters exported and plotted were SelectedObjectCountPerValidField (cell density), MEAN ObjectAreaCh1 (nucleus size), and % RESPONDER MeanAvgIntenCh2 (percent PI positive cells based on based on a threshold set with vehicle treated cells).

Series [5] relates to MDA-MB-231 cells. The series is described as follows: Detection and quantitation of ROS in cancer cells (CM-H2-DCFDA). The class given is cell-based, human. The following applies: for pEC50: read-out: EC50 of ROS generation. As to the method:
Detection and quantitation of ROS in cancer cells was performed as described before (14). Briefly, MDA-MB-231 cells were labeled with Hoechst 33342, loaded with CM-H2-DCFDA (5 μM, 15 min), and treated with test agents for 10 min. After two washes, cells were analyzed for Hoechst and ROS/FITC fluorescence on the ArrayScan II. Cells were classified as positive for ROS if their average FITC intensity exceeded a threshold defined as the average FITC intensity plus one SD from DMSO-treated wells.

Series [6] deals with ERK, JNK/SAPK, p38, MEK1 and MKK4/SEK1 phosphorylation. As to the kind of experiment: Western blot of MAPK cascade phosphorylation. The class given is cell-based, human. The following applies: MDA-MB-231 cells, 20 μM.
For a further series, the system named is NCI 60 cell line panel. The conditions noted are these: NSC150117, last tested June 2016; cited from earlier work.
The test system of series [7] is DUSP6/MKP-3 and DUSP1/MKP-1. The following applies: HeLa cells, prior study (12); cited from earlier work.
For series [8], the system named is patient-derived pre-B acute lymphoblastic leukemia (pre-B-ALL) cells. The following applies: literature (46); cited from earlier work.
Series [9] relates to MDA-MB-231 cells. As to the kind of experiment: Toxicity reversal (rescue from BCI-215 toxicity by MAPK inhibitors). The class given is cell-based, human. The conditions noted are these: MAPK inhibitor pre-incubation, then BCI-215 25 μM, 24 hours. As to the method:
Cells were pre-treated (30 min for SCH772984, SP600125, SB203580, and 3 hours for JNK-IN-8) with identical concentration gradients of MAPK inhibitors on the right and left halves of a 384 well microplate. After preincubation, half of the microplate was treated with vehicle (DMSO), the other with a pro-apoptotic concentration of BCI-215 (25 μM). To eliminate potential bias through plate/edge effects, an independent plate was prepared in parallel where vehicle and BCI-215 treatments were reversed. Twenty-four hours thereafter, plates were stained with Hoechst 33342, washed once, and imaged on the ArrayScan II using a 10× objective for analysis for cell numbers and nuclear morphology. Plates were subsequently immunostained with a cleaved caspase-3/Cy5-conjugated secondary antibody pair and analyzed for apoptosis on an ArrayScan VTI using a 20×0.75 NA objective. Four independent readouts were extracted and correlated: cell density (SelectedObjectCountPerValidField), nuclear condensation (MEAN_ObjectAvgIntenCh1), nucleus rounding (MEAN_ObjectShapeLWRCh1), and average cellular cleaved caspase-3 intensity (MEAN_AvgIntenCh2). For each parameter, data were normalized to vehicle (maximum rescue) and BCI-215 (no rescue) as % rescue=1−((data point−DMSO)/(DMSO-BCI-215))*100.

The subject of another series is cellular MAPK activity. The following applies: literature value; cited from earlier work.
For series [10], the system named is MDA-MB-231 cells. As to the kind of experiment: Immune cell killing (sensitization to PBMC-derived LAK). The conditions noted are these: pre-treated 24 hours: BCI-215 3 μM, cisplatin 2 μM, doxorubicin 400 nM. The class given is cell-based, human. As to the method: Peripheral blood mononuclear cells were obtained from healthy volunteers with an established IRB approved protocol, separated from heparinized blood on Ficoll-hypaque (GE Healthcare, Chicago) gradients as previously reported (16). Cells were cultured in RPMI 1640 supplemented with 10% FCS, 1% glutamine, 1% penicillin/streptomycin, and stimulated with 6,000 IU of Interleukin 2 for 24 hours. After incubation, cells were washed with PBS and counted. In parallel, MBA-MB-231 cells were pre-treated in a 384 well plate with vehicle or BCI-215 (3 μM). After 24 hours in culture, medium was replaced and PBMC added in two-fold serial dilutions starting with a 50-fold excess of PBMCs in triplicate. After 24 hours of co-culture, cells were fixed with formaldehyde/Hoechst 33342, washed twice with PBS, and imaged on the ArrayScan II. Cancer cells were identified by their larger nuclei compared with PBMC, setting a size gate in the DAPI channel. In experiments with chemotherapeutics, cells carrying a biosensor consisting of a mitochondrial targeting sequence derived from cytochrome c oxidase VIII linked to GFP that is a surrogate for cytochrome c release from mitochondria (17) were pre-treated for 24 hours with cisplatin (2 μM) or doxorubicin (400 nM), exposed to LAK as above, and cancer cells identified and quantified by green fluorescence. Cell densities were normalized to those in the absence of PBMCs. Mean cell densities from multiple independent experiments were averaged and plotted in GraphPad Prism.

The mark [11] stands for this setting: rat hepatocytes, 5-day exposure.

By pIC50 is commonly meant the negative decadic logarithm of the IC50, by convention in mol/L. The GI50 is the concentration at which growth is held to half of that of the control. For the molecule `O=C1/C(=C/c2ccccc2)C(NC2CCCCC2)c2ccccc21` (centres unmarked) [BCI, (E)-2-benzylidene-3-(cyclohexylamino)-2,3-dihydro-1H-inden-1-one], the nuclear morphology entry in the series with MDA-MB-231 cells [1] (BCI and BCI-215 at 22 μM) is listed as “shrunken, condensed nuclei that resembled pyknosis”. Also, the pIC50 in the series on MDA-MB-231 cells [1] (induction of phospho-ERK, read-out: IC50 ERK phosphorylation) is 5.07; in the series on MDA-MB-231 cells [1] (read-out: IC50 Caspase-3 cleavage) it was 5.04; in the series with MDA-MB-231 cells [1] (read-out: IC50 Nuclear condensation), 4.89. Further, the “hepatocyte toxicity, cell death (PI positive cells)” value (“hepatocyte toxicity, cell death” below) with rat hepatocytes [2] (setting [11]) is “caused cell death”. The “mitochondrial membrane integrity / potential (TMRE)” value in the series with rat hepatocytes [3] is recorded as “did not affect mitochondrial potential”. The “necrosis (% PI positive cells)” value in the series with MDA-MB-231 cells [4] is given as “Necrosis was reduced”. The pEC50 in the series on MDA-MB-231 cells [5] (Homo sapiens) was 4.70. In series [6], the “activation (phosphorylation) of ERK, JNK/SAPK and p38” value was “activated all three kinases”. In addition, the GI50 with NCI 60 cell line panel was 1.84 µM. For the same molecule, the “effect on ectopic DUSP6/MKP-3 and DUSP1/MKP-1 expression” value in [7] is “override the effects”. The “cell death in pre-B-ALL cells” value in [8] is reported as “selectively induced cell death”.
`Cc1cc(NC(=O)c2cccc(NC(=O)/C=C/CN(C)C)c2)ccc1Nc1nccc(-c2cccnc2)n1` [JNK-IN-8]: the “reversal of BCI-215-induced cell loss, nuclear morphology changes and apoptosis” value with MDA-MB-231 cells [9] is “no effect”. For the same molecule, the “published concentration reported to inhibit cellular MAPK activity” value in the series with cellular MAPK activity was 0.5 µM.
For `O=C1C(SCCO)=C(SCCO)C(=O)c2ccccc21` [NSC95397], the “hepatocyte toxicity, cell death” value in the series on rat hepatocytes [2] (setting [11]) is given as “caused cell death”. Further, the “mitochondrial membrane integrity / potential (TMRE)” value with rat hepatocytes [3] was “loss of mitochondrial membrane integrity”. For the same molecule, the “necrosis (% PI positive cells)” value in the series on MDA-MB-231 cells [4] is recorded as “caused necrosis at antimigratory concentrations”. In the series with MDA-MB-231 cells [5], the “time to ROS generation” value is no more than 30 min and the pEC50 is 5.30 to 5.52.
As to `C[S+]([O-])c1ccc(-c2nc(-c3ccncc3)c(-c3ccc(F)cc3)[nH]2)cc1` (centres unmarked) [SB203580], in the series on MDA-MB-231 cells [9], the “reversal of BCI-215-induced cell loss, nuclear morphology changes and apoptosis” value is “partially reversed”. Also, the “published concentration reported to inhibit cellular MAPK activity” value with cellular MAPK activity is 10 µM.
For `O=C(Nc1ccc2[nH]nc(-c3ccncc3)c2c1)[C@@H]1CCN(CC(=O)N2CCN(c3ccc(-c4ncccn4)cc3)CC2)C1` [SCH772984], the “reversal of BCI-215-induced cell loss, nuclear morphology changes and apoptosis” value in the series with MDA-MB-231 cells [9] is given as “no effect”. Besides, the “published concentration reported to inhibit cellular MAPK activity” value with cellular MAPK activity is 0.03 µM.
For `N.N.[Cl][Pt][Cl]` [cisplatin], the “sensitization to LAK activity” value with MDA-MB-231 cells [10] is “sensitized cells to LAK activity”.
For the molecule `COc1cccc2c1C(=O)c1c(O)c3c(c(O)c1C2=O)C[C@@](O)(C(=O)CO)C[C@@H]3O[C@H]1C[C@H](N)[C@H](O)[C@H](C)O1` [doxorubicin], the “sensitization to LAK activity” value in the series with MDA-MB-231 cells [10] is listed as “sensitized cells to LAK activity”.
Turning to `CC1=CC(=O)c2ccccc2C1=O` [menadione], the “hepatocyte toxicity, cell death” value with rat hepatocytes [2] is “caused cell death”. For the same molecule, the “mitochondrial membrane integrity / potential (TMRE)” value in the series on rat hepatocytes [3] is “loss of mitochondrial membrane integrity”.
Consider `C[n+]1cc2c3c(ccc2c2ccc4cc5c(cc4c21)OCO5)OCO3` [sanguinarine], for which the “hepatocyte toxicity, cell death” value in the series on rat hepatocytes [2] (setting [11]) is given as “caused cell death”. Also, the “mitochondrial membrane integrity / potential (TMRE)” value in the series with rat hepatocytes [3] is reported as “loss of mitochondrial membrane integrity”.
